Experimental data published in ChEMBL document CHEMBL1153407, “12-Substituted 2,3-dimethoxy-8,9-methylenedioxybenzo[i]phenanthridines as novel topoisomerase I-targeting antitumor agents” (Bioorg Med Chem, 2009).

Tests used:
[1] = Cytotoxicity against human KB3-1 cells after 4 days by MTT method; assay type: functional, cell-based; details: KB 3-1, 96 h
[2] = Cytotoxicity against camptothecin-resistant human CPT-K5 cells after 4 days by MTT method; assay type: functional, cell-based; details: CPT-K5, 96 h
[3] = Cytotoxicity against BCRP overexpressing human KBH5.0 cells after 4 days by MTT method; assay type: functional, cell-based; details: KBH5.0 cell, 96 h
[4] = Cytotoxicity against human RPMI8402 cells after 4 days by MTT method; assay type: functional, cell-based; details: RPMI 8402, 96 h
P388 [5] = assay: Cytotoxicity against camptothecin-resistant mouse P388 cells after 4 days by MTT method; assay type: functional, cell-based; details: P388, 96 h
P388 [6] = assay: Cytotoxicity against mouse P388 cells after 4 days by MTT method; assay type: functional, cell-based; details: P388, 96 h
[7] = Cytotoxicity against MDR1 overexpressing human KBV1 cells after 4 days by MTT method; assay type: functional, cell-based; details: KB-V1, 96 h
[8] = target: T1, DNA topoisomerase 1 (Homo sapiens) (UniProt P11387); assay: Inhibition of human topoisomerase 1 expressed in sf9 cells assessed as drug level causing 10% mediated DNA cleavage relative to topotecan
T1 sequence (whole entry): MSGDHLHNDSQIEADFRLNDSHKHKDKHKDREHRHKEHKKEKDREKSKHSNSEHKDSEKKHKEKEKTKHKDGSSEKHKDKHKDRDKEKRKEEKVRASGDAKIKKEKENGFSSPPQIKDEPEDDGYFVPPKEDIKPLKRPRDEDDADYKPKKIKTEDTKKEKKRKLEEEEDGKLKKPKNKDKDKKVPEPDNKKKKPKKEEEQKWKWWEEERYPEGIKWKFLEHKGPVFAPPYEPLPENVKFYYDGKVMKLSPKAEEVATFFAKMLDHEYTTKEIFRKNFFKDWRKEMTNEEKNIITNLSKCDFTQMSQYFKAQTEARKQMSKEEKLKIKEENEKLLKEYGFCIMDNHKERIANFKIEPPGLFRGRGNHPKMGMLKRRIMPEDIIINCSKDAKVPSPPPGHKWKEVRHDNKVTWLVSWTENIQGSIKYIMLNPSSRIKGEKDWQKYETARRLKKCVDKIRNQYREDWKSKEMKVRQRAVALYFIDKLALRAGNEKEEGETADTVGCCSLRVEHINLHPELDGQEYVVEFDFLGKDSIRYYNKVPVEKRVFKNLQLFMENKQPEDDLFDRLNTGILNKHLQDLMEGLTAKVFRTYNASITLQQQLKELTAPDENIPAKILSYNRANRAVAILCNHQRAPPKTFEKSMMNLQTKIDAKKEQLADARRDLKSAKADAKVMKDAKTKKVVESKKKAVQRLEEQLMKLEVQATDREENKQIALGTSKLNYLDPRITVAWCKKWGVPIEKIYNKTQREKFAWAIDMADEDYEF

Row | Structure (SMILES) | IC50 [1] | IC50 [2] | IC50 [3] | IC50 [4] | IC50 (P388 [5]) | IC50 (P388 [6]) | IC50 [7] | Activity [8]
1 | COc1cc2c(C(=O)NCCN(C)C)cc3c4cc5c(cc4ncc3c2cc1OC)OCO5 | 5 nM | 1000 nM | 60 nM | 3 nM | 320 nM | 3 nM | 220 nM | 0.1
2 | CCc1c2c(nc3ccc(O)cc13)-c1cc3c(c(=O)n1C2)COC(=O)[C@]3(O)CC [7-ETHYL-10-HYDROXYCAMPTOTHECIN] | 4 nM | – | 300 nM | – | – | – | 46 nM | –
3 | CC[C@@]1(O)C(=O)OCc2c1cc1n(c2=O)Cc2cc3ccccc3nc2-1 [CAMPTOTHECIN] | – | > 10000 nM | – | 4 nM | > 10000 nM | – | – | 0.2
4 | COc1cc2c(CNCCN(C)C)cc3c4cc5c(cc4ncc3c2cc1OC)OCO5 | 25 nM | 30 nM | 38 nM | 24 nM | 24 nM | 20 nM | 27 nM | 1.9
5 | COc1cc2c(C(=O)N(C)C)cc3c4cc5c(cc4ncc3c2cc1OC)OCO5 | 600 nM | > 10000 nM | 380 nM | 600 nM | > 10000 nM | 480 nM | 700 nM | 1.1
6 | COc1cc2c(/C=C/CN(C)C)cc3c4cc5c(cc4ncc3c2cc1OC)OCO5 | 160 nM | 83 nM | 290 nM | 45 nM | 37 nM | 30 nM | 370 nM | 7.7
7 | COc1cc2c(CCCCN(C)C)cc3c4cc5c(cc4ncc3c2cc1OC)OCO5 | 400 nM | 2300 nM | 950 nM | 1000 nM | 2100 nM | 1400 nM | 4000 nM | 0.2
8 | COc1cc2c3cnc4cc5c(cc4c3c(=O)n(CCN(C)C)c2cc1OC)OCO5 | 3 nM | 210 nM | 4 nM | 0.7 nM | 15 nM | – | 4 nM | 0.6
9 | COc1cc2c(C=O)cc3c4cc5c(cc4ncc3c2cc1OC)OCO5 | 4 nM | 3 nM | 19 nM | 3 nM | 2 nM | 2 nM | 16 nM | 4.7
10 | COc1cc2c(CCN(C)C)cc3c4cc5c(cc4ncc3c2cc1OC)OCO5 | 25 nM | 450 nM | 70 nM | 30 nM | 300 nM | 30 nM | 80 nM | 0.5
11 | COc1cc2c(CC[N+](=O)[O-])cc3c4cc5c(cc4ncc3c2cc1OC)OCO5 | 300 nM | 300 nM | 490 nM | 380 nM | 290 nM | 280 nM | 440 nM | 7.7
